pIC50: −log10 of the molar value.

Results on 21 compounds are retold here after patent US9856234B2, “Heterocyclic compounds and their use as glycogen synthase kinase 3 inhibitors” (ABBVIE INC., priority 2006, dated 2018).

In the assay the target is T1, human Glycogen Synthase Kinase-3 beta (hGSK-3β) (Homo sapiens, UniProt P49841).
T1 construct: purchased Upstate cell signaling solutions
T1 sequence (P49841 whole entry): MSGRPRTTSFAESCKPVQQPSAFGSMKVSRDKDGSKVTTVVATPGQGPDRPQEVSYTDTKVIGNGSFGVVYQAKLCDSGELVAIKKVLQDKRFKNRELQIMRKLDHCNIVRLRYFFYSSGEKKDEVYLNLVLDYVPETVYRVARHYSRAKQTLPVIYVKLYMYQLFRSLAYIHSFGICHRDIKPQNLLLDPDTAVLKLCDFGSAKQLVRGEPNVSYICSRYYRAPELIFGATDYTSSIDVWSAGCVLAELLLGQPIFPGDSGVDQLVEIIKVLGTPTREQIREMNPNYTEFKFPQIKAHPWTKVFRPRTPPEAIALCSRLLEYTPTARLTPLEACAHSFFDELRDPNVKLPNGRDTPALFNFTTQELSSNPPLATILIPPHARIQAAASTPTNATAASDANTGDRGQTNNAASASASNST
The experiment in a line: Biochemical hGSK-3Beta assay (33P-ATP phosphorylation of biotinylated peptide substrate). To be noted: 10 μM ATP, 30 minutes at room temperature; read-out: GSK-3β IC50. On the procedure: Methods—Biochemical hGSK-3Beta Assay
Compounds were tested for their ability to inhibit human Glycogen Synthase Kinase-3 beta (hGSK-3β) to phosphorylate biotin-[…](pS)EDEEE. Compounds were incubated with 0.5 μCi 33P-ATP, 10 μM ATP, 0.0125 U hGSK-3β (Upstate cell signaling solutions) and 1 μM substrate (biotin-[…](pS)EDEEE) in 50 mM HEPES, 10 mM MgCl2, […], 1 mM DTT, 0.0075% Triton, 2% DMSO (total volume 50 μL) for 30 minutes at room temperature. The incubation was stopped by addition of an equal volume of 100 mM EDTA, 4M NaCl. 80 μL of this mixture was added to streptavidin-coated Flashplates (PerkinElmer). Following a wash step, 33P incorporation was quantified on a MicroBeta microplate liquid scintillation counter (Perkin Elmer). IC50's were determined by fitting a sigmoidal dose-response curve to the counts obtained at the different concentrations in Graph Pad Prism.
Take “1-(7-Bromoquinolin-4-yl)-3-(pyrazin-2-yl)urea [Example 28]”: the negative-log IC50 (pIC50) is above 7.00.

Turning to “1-(8-Bromoquinolin-4-yl)-3-(pyrazin-2-yl)urea [Example 37]”, the negative-log IC50 (pIC50) is above 7.00.

“1-(Pyrazin-2-yl)-3-(pyridin-4-yl)urea [Example 24]”: the negative-log IC50 (pIC50) was 5.00 to 7.00.

“1-Methyl-1-pyrazin-2-yl-3-(6-trifluoromethyl-quinolin-4-yl)-urea [Example 22]”: the pIC50 is below 5.00.

`O=C(Nc1cnccn1)Nc1cc(C(F)(F)F)nc2ccccc12` [Example 1, 1-Pyrazin-2-yl-3-(2-trifluoromethyl-quinolin-4-yl)-urea]: the pIC50 is 5.00 to 7.00.

As for `O=C(Nc1cnccn1)Nc1ccnc2ccc(Br)cc12` [Example 2, 1-(6-Bromo-quinolin-4-yl)-3-pyrazin-2-yl-urea], the pIC50 is above 7.00.

For the compound `O=C(Nc1cnccn1)Nc1c2c(nc3ccccc13)CCCC2` [Example 5, 1-Pyrazin-2-yl-3-(1,2,3,4-tetrahydro-acridin-9-yl)-urea], the negative logarithm of the IC50 (pIC50) was 5.00 to 7.00.

For the compound `O=C(Nc1cnccn1)Nc1cncc2ccccc12` [Example 6, 1-Isoquinolin-4-yl-3-pyrazin-2-yl-urea], the negative logarithm of the IC50 (pIC50) is 5.00 to 7.00.

As to `O=C(Nc1cnccn1)Nc1cccc2ccccc12` [Example 7, 1-Naphthalen-1-yl-3-pyrazin-2-yl-urea], the negative-log IC50 (pIC50) is below 5.00.

As to `Cc1cc(NC(=O)Nc2cnccn2)c2ccccc2n1` [Example 12, 1-(2-Methyl-quinolin-4-yl)-3-pyrazin-2-yl-urea], the pIC50 was 5.00 to 7.00.

Turning to `O=C(Nc1cnccn1)Nc1cccc2ccncc12` [Example 19, 1-Isoquinolin-8-yl-3-pyrazin-2-yl-urea], the pIC50 is 5.00 to 7.00.

For `O=C(Nc1cnccn1)Nc1cccc2cnccc12` [Example 20, 1-Isoquinolin-5-yl-3-pyrazin-2-yl-urea], the pIC50 is 5.00 to 7.00.

As for `O=C(Nc1cnccn1)Nc1cccc2ncccc12` [Example 21, 1-Pyrazin-2-yl-3-quinolin-5-yl-urea], the pIC50 was 5.00 to 7.00.

Turning to `O=C(Nc1cnccn1)Nc1ccnc2cc(I)ccc12` [Example 27, 1-(7-Iodoquinolin-4-yl)-3-(pyrazin-2-yl)urea], the negative logarithm of the IC50 (pIC50) was above 7.00.

Regarding `O=C(Nc1ccccn1)Nc1ccnc2cc(C(F)(F)F)ccc12` [Example 29, 1-(Pyridin-2-yl)-3-(7-(trifluoromethyl)quinolin-4-yl)urea], the negative-log IC50 (pIC50) was 5.00 to 7.00.

Regarding `O=C(Nc1ccccc1)Nc1ccnc2ccccc12` [Example 30, 1-Phenyl-3-(quinolin-4-yl)urea, reference compound], the negative-log IC50 (pIC50) was below 5.00.

With `Cc1cccc2c(NC(=O)Nc3cnccn3)ccnc12` [Example 31, 1-(8-Methylquinolin-4-yl)-3-(Pyrazin-2-yl)urea], the pIC50 is above 7.00.

In the case of `O=C(Nc1cnccn1)Nc1ccnc2c(Cl)cccc12` [Example 32, 1-(8-Chloroquinolin-4-yl)-3-(pyrazin-2-yl)urea], the pIC50 is above 7.00.

Regarding `O=C(Nc1cnccn1)Nc1ccnc2c(I)cccc12` [Example 34, 1-(8-Iodoquinolin-4-yl)-3-(pyrazin-2-yl)urea], the pIC50 was above 7.00.

On to `O=C(Nc1cnccn1)Nc1c(Br)cnc2ccccc12` [Example 35, 1-(3-Bromoquinolin-4-yl)-3-(pyrazin-2-yl)urea], for which the negative-log IC50 (pIC50) is 5.00 to 7.00.

For the compound `O=C(Nc1cnc2ccccc2c1)Nc1cnccn1` [Example 40, 1-(Pyrazin-2-yl)-3-(quinolin-3-yl)urea, reference compound], the pIC50 was below 5.00.

For orientation: pIC50 means the IC50 on a negative log10 scale, so that one unit is a factor of ten.
